Data: ChEMBL document CHEMBL4028900, “Design of Novel 3-Pyrimidinylazaindole CDK2/9 Inhibitors with Potent In Vitro and In Vivo Antitumor Efficacy in a Triple-Negative Breast Cancer Model” (J Med Chem, 2017)

Columns and labels:
[1] = target: CDK9/cyclin T1 (Homo sapiens) (UniProt O60563+P50750); settings: at 500 nM
[2] = target: CDK2/Cyclin A2 (Homo sapiens) (UniProt P24941+P20248); settings: at 500 nM
Description: Inhibition of CDK2/cyclin A (unknown origin) at 500 nM using histone H1 as substrate after 30 mins in presence of [33P]-gamma-ATP relative to control

CDK2/Cyclin A2 = CDK2/Cyclin A2 (Homo sapiens, UniProt P24941); assay: Inhibition of CDK2/cyclin A (unknown origin) using histone H1 as substrate after 30 mins in presence of [33P]-gamma-ATP; assay type: protein-complex assay
CDK9/cyclin T1 = CDK9/cyclin T1 (Homo sapiens, UniProt P50750); assay type: protein-complex assay
HCT-116 = assay: Antiproliferative activity against human HCT116 cells after 72 hrs by SRB assay; settings: HCT-116, 72 h
SH-SY5Y = assay: Antiproliferative activity against human SH-SY5Y cells after 24 hrs by MTT assay; assay type: functional, cell-based

Sequence of CDK9/cyclin T1 (O60563 whole entry): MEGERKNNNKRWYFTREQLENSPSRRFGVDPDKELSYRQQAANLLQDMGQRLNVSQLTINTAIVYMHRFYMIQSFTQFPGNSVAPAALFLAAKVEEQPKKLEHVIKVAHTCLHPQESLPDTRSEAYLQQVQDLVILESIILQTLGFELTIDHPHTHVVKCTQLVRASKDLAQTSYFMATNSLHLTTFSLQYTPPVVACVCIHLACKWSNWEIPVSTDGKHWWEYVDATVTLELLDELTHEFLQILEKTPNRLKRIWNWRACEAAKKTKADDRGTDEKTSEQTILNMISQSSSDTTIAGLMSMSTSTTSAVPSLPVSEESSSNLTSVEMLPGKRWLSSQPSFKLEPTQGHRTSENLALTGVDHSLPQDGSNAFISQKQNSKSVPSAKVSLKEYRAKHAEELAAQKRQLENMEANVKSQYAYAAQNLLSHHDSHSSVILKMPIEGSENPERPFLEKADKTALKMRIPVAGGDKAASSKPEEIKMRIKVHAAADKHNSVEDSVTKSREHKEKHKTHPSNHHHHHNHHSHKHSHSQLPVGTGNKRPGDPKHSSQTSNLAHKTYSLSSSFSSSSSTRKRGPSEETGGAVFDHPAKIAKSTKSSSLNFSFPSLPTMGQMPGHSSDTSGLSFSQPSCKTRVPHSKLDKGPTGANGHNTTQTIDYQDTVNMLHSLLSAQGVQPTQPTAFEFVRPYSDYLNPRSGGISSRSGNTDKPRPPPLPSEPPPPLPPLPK
Sequence of CDK9/cyclin T1 (P50750 whole entry): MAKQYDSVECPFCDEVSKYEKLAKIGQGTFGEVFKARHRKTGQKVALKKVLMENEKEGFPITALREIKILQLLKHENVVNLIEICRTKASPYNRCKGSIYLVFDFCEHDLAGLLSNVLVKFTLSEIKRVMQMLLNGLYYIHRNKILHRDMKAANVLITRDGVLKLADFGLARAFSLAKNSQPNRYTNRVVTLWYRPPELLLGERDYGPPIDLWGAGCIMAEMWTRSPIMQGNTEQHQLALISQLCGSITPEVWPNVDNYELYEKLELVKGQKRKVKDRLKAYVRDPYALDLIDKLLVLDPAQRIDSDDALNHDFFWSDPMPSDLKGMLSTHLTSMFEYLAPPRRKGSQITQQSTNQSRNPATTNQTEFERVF

| SMILES | inhibition [1] [%] | inhibition [2] [%] | IC50 (CDK2/Cyclin A2) [µM] | IC50 (CDK9/cyclin T1) [µM] | IC50 (HCT-116) [µM] | IC50 (SH-SY5Y) [µM] |
| --- | --- | --- | --- | --- | --- | --- |
| CN1CCN(c2nccc(-c3c[nH]c4ncccc34)n2)CC1 | 70.5 | 71.6 | 0.35 | 0.7 |  |  |
| Cn1cncc1S(=O)(=O)n1cc(-c2ccnc(N)n2)c2cccnc21 | 50.3 | 55.2 |  |  |  |  |
| Nc1nccc(-c2cn(S(=O)(=O)c3ccc(F)cc3)c3ncccc23)n1 | 40 | 22.6 |  |  |  |  |
| Nc1nccc(-c2cn(S(=O)(=O)c3ccc(Br)cc3)c3ncccc23)n1 | 31.2 | 28.1 |  |  |  |  |
| c1cnc2[nH]cc(-c3ccnc(N4CCOCC4)n3)c2c1 | 72.9 | 73.3 | 0.231 | 0.642 |  |  |
| COc1ccc2ccccc2c1-c1cnc2[nH]cc(-c3ccnc(N)n3)c2c1 | 47.4 | 24.2 | 1.09 | 0.625 |  |  |
| c1cnc2[nH]cc(-c3ccnc(N4CCCCC4)n3)c2c1 | 71.9 | 74 | 0.3 | 0.8 |  |  |
| c1ccc2c(CCNc3nccc(-c4c[nH]c5ncccc45)n3)c[nH]c2c1 | 88 | 89.7 | 0.01 | 0.052 |  |  |
| Nc1nccc(-c2cn(S(=O)(=O)c3ccc4c(c3)OCCO4)c3ncccc23)n1 | 52.2 | 48.7 |  |  |  |  |
| CSc1ccccc1-c1cnc2[nH]cc(-c3ccnc(N)n3)c2c1 | 93.7 | 78.7 | 0.024 | 0.045 |  |  |
| Nc1nccc(-c2cn(S(=O)(=O)c3ccc(C(F)(F)F)cc3)c3ncccc23)n1 | 50.9 | 28.4 |  |  |  |  |
| CCc1ccccc1-c1cnc2[nH]cc(-c3ccnc(N)n3)c2c1 | 70.4 | 79.3 | 0.075 | 0.213 |  |  |
| Nc1nccc(-c2cn(S(=O)(=O)c3ccc(OC(F)(F)F)cc3)c3ncccc23)n1 | 54.4 | 31.3 |  |  |  |  |
| COc1ccc2[nH]c(-c3cnc4[nH]cc(-c5ccnc(N)n5)c4c3)cc2c1 | 82.4 | 90.2 | 0.016 | 0.342 |  |  |
| Nc1nccc(-c2c[nH]c3ncc(-c4ccsc4)cc23)n1 | 93.5 | 95.1 | 0.001 | 0.035 | 0.6 | 3.3 |
| c1cnc2[nH]cc(-c3ccnc(N4CCCC4)n3)c2c1 | 77.2 | 78.3 | 0.16 | 0.45 |  |  |
| Nc1nccc(-c2c[nH]c3ncc(-c4cccc(C(F)(F)F)c4)cc23)n1 | 86.5 | 93.4 | 0.01 | 0.047 |  |  |
| COc1ccc(CCNc2nccc(-c3c[nH]c4ncccc34)n2)cc1 | 91 | 97.7 | 0.004 | 0.038 | 9.5 |  |
| Nc1nccc(-c2c[nH]c3ncc(-c4cc5ccccc5s4)cc23)n1 | 86.4 | 92 | 0.012 | 0.082 |  |  |
| Nc1nccc(-c2c[nH]c3ncc(-c4cc5ccccc5o4)cc23)n1 | 85 | 87.9 | 0.023 | 0.093 |  |  |
| Cc1cccc(-c2cnc3[nH]cc(-c4ccnc(N)n4)c3c2)c1 | 82.6 | 84.8 |  |  |  |  |
| Nc1nccc(-c2c[nH]c3ncc(-c4ccc(OC(F)(F)F)cc4)cc23)n1 |  |  |  |  | 1.5 | 0.4 |
| COc1ccc(CCNc2nccc(-c3c[nH]c4ncccc34)n2)cc1OC | 85 | 89.2 | 0.022 | 0.059 |  |  |
| Nc1nccc(-c2c[nH]c3ncc(-c4cccc5ccccc45)cc23)n1 | 84 | 79.2 | 0.182 | 0.159 |  |  |
| CC(=O)Nc1ccc(S(=O)(=O)n2cc(-c3ccnc(N)n3)c3cccnc32)cc1 | 44.2 | 36.3 |  |  |  |  |
